Experiment: Particle deagglomeration: particle size distribution of the dose of dry powder emitted by the delivery device
Type: physicochemical
Settings: for emitted dose: dry powder emitted from delivery device comprising a container for storing dry powder (FIG. 28, FIG. 29); for deagglomerated to the typical inhalable range: share of dry powder, delivery device with container
Description: The performance of the delivery device can be measured by how closely the particle size distribution of the emitted powder approaches the original distribution.
An embodiment of the device that stored Mannitol on a corrugated reed was also compared to the embodiment of the device that stored and dispensed Mannitol from a blister.

| SMILES | emitted dose | deagglomerated to the typical inhalable range | Fine Particle Fraction < 5 um (%) (Table 2, performance of device, N = 8, 68% CI) | FPF (device that dispensed from a blister) | FPF (device that dispensed from the reed (corrugated reed)) | FPF (device with a reed) | Fine Particle Fraction < 5 um (%) (device with reed, N = 10, 68% CI) | FPF (device without a reed) | Fine Particle Fraction < 5 um (%) (device without reed, same flow conditions, N = 10, 68% CI) | Fine Particle Fraction < 5 um (%) (powder stored in and dispensed from blister, N = 10, 68% CI) | Fine Particle Fraction < 5 um (%) (powder stored in and dispensed from corrugated reed, N = 5, 68% CI) |
| --- | --- | --- | --- | --- | --- | --- | --- | --- | --- | --- | --- |
| CNCC(O)c1ccc(O)c(O)c1 (stereo not shown) [Adrenaline] | 72.4-92.0% | about 35% | – | – | – | – | – | – | – | – | – |
| OC[C@@H](O)[C@@H](O)[C@H](O)[C@H](O)CO [Mannitol] | 75.3-86.1% | About 50% | 48.0-60.9% | about 43% | about 44% | about 43% | 38.9-47.4% | about 31% | 26.8-35.1% | 38.9-47.4% | 40.6-48.2% |

— patent US11247001B2, “Delivery device with cantilever structure and associated method of use” (De Motu Cordis Pty Ltd, priority 2016, dated 2022)
